Measurements published in US8946436B2, “Oxazolidinone compounds and their uses in preparation of antibiotics” (Sichuan Gooddoctor Pharmaceutical Group Co., Ltd., priority 2011, dated 2015).
In brackets after ≈: the same amount, converted by molar mass. Where two headings read alike, the source gives them in different places.

Experiments:
HEK-293 = assay: Cytotoxicity experiment (MTT), HEK-293; type: cell-based; settings: Homo sapiens, HEK293, 48 h, HEK-293 normal cells, read-out: Inhibition ratio
Method: (§1) (1) Inoculating cells: Experimental cells in the growth of logarithmic phase were collected and suspended. The cell concentration of the suspension was adjusted so that they could be inoculated into the wells of 96-well micro plate at a density between 10^3-10^4 cells per well (200 μl per well). (2) Culturing cells: The cells were cultured at normal conditions for 3 days and then exposed to 50 uM compounds for test. (3) Coloring reaction: At 24 h, 48 h and 72 h after the cells being exposed to the compounds for test, 200 μl culture medium containing 20 μl MTT solution (5 mg/ml) was added into each well, and the well was further incubated at 37° C. for 2 hours to terminate the incubation. After the incubation, the supernatants were removed from the wells. In the event there were suspended cells in the wells, centrifugation should be performed before removal of supernatant from the wells. After the removal, 150 μl DMSO was added to each well and mixed thoroughly by agitation for 10 mins to fully dissolve crystals. (4) Ascertainment of colorimetry: The absorbance value at 490 nm of each well was determined by Enzyme-linked immunosorbent Monitor. The growth curve of the experimental cells was plotted by taking time as x-coordinate and absorbance value as y-coordinate. In addition, an inhibition ratio could be calculated in accordance with the following formula: Inhibition ratio=(absorbance value of control group-absorbance value of administering group)/absorbance value of control group×100%.

S. agalactiae = assay: In vitro antibacterial activity (MIC), S. agalactiae; type: cell-based; settings: Streptococcus agalactiae
Method: (§2) The test strain was inoculated into the liquid medium and cultured at 37° C. for 16-18 h. The culture liquid and MH medium were put into two blank wells of a 96-well plate, respectively. Then, the absorptions thereof were measured by a Microplate reader. The difference between the absorption values of the culture liquid and MH medium is the adsorption of the bacteria. The concentration of the culture liquid can be calculated according to the formula of 1OD=50 million CFU/mL. The culture liquid was diluted with the MH bouillon culture medium to 5000 CFU/mL for further use.
(§3) Compounds 12a, 13 and 14 were dissolved in DMSO to 1 mg/mL, and then filtered with a 0.22 μm filter to obtain the compound solutions. And then they were gradually diluted to a desired concentration (10× final concentration) with the liquid medium, so as to obtain a series of dilutions. The final concentration grade of the dilutions of each tested compound consists of 14 concentrations, which includes: 0.03125 μg/mL, […], 0.125 μg/mL, 0.25 μg/mL, […], 1 μg/mL, 2 μg/mL, 4 μg/mL, 8 μg/mL, 16 μg/mL, 32 μg/mL, 64 μg/mL, 128 μg/mL and 256 μg/mL.
(§4) 10 μL of each of the compound dilutions above was added into a well of a 96-well plate. 90 μL of the culture liquid (5000 CFU/mL) was added into each of the wells, respectively, mixed with the dilutions to render the tested compound concentration to the final concentration. The resulted mixture was incubated at 37° C. for 16-18 h, and then the OD630 thereof was measured. A culture liquid free of the tested compounds is used as a blank control, and three parallel tests with the same concentration of each compound were performed. The minimum inhibitory concentration (MIC) of each compound on the standard strain of Staphylococcus Aureus and other test strains was determined. Specifically, among the culture liquid contained in the wells of the micro-plate, the first three lowest concentrations under which growth of the test strains could be observed were chose for further evaluation of the MIC. A culture liquid free of tested compounds was used as a blank control. Each of the culture liquids was homogenized independently, and then was diluted with a sterile saline. Each of the diluted culture liquids was plated onto a MH bouillon plate and incubated at 37° C. for 20 h in incubator. After the incubation, the number of the colonies on each plate was counted. As compared with the blank control group, the lowest concentration of each of the test compound groups, at which 80% reduction in the colony number of the strains was achieved, was recorded as the MIC.

S. pneumoniae = assay: In vitro antibacterial activity (MIC), S. pneumoniae; type: cell-based; settings: Streptococcus pneumoniae
Method: as §2, §3, §4

S. aureus = assay: In vitro antibacterial activity (MIC), S. aureus; type: cell-based, Staphylococcus Aureus; settings: Staphylococcus aureus
Method: Strains: strain ATCC25923 is available from the American Type Culture Collection, and is used as a standard strain of Staphylococcus Aureus;
Liquid medium: MH bouillon culture medium, a product of BD Company, United States of American;
Tested Compounds: compounds 12a, 13 and 14 prepared according to the methods above, and Linezolid purchased from Pfizer.
as §2, §3, §4

E. faecalis = assay: In vitro antibacterial activity (MIC), E. faecalis; type: cell-based; settings: Enterococcus faecalis
Method: as §2, §3, §4

L-02 = assay: Cytotoxicity experiment (MTT), L-02; type: cell-based; settings: Homo sapiens, L02, 48 h, L-02 normal cells, read-out: Inhibition ratio
Method: as §1

[1] = S. agalactiae (5 strains), read-out: MIC
[2] = S. pneumoniae (10 strains), read-out: MIC
[3] = S. aureus (12 strains), read-out: MIC
[4] = E. faecalis (7 strains), read-out: MIC

Structure (SMILES) | melting point [°C] | MIC (S. agalactiae; [1]) [µg/mL] | MIC (S. pneumoniae; [2]) [µg/mL] | MIC (S. aureus; [3]) [µg/mL] | MIC (E. faecalis; [4]) [µg/mL] | cytotoxicity at 50 µM (HEK-293) [%] | MIC (S. agalactiae) [µg/mL] | MIC (S. pneumoniae) [µg/mL] | MIC (S. aureus) [µg/mL] | MIC (E. faecalis) [µg/mL] | cytotoxicity at 50 µM (L-02) [%]
CC(=O)NC[C@H]1CN(c2ccc(-n3cc(-c4ccc(Cl)cc4)cn3)c(F)c2)C(=O)O1 [Compound 13d, (S)-N-((3-(3-fluoro-4-(4-(4-chlorophenyl)-1H-pyrazol-1-yl)phenyl)-2-oxooxazolidin-5-yl)methyl)acetamide] | 237.5 to 238.2 |  |  |  |  | 21 | 0.5 to 8 (≈ 1.17 to 18.7 µM) | 0.25 to 4 (≈ 0.583 to 9.33 µM) | 1 to 4 (≈ 2.33 to 9.33 µM) | 0.5 to 8 (≈ 1.17 to 18.7 µM) | 39.3
CC(=O)NC[C@H]1CN(c2ccc(-n3ccc(-c4ccccn4)n3)c(F)c2)C(=O)O1 [Compound 12a, (S)-N-((3-(3-fluoro-4-(3-(pyridin-2-yl)-1H-pyrazol-1-yl)phenyl)-2-oxooxazolidin-5-yl)methyl)acetamide] |  | 2 to 16 (≈ 5.06 to 40.5 µM) | 1 to 16 (≈ 2.53 to 40.5 µM) | 2 to 16 (≈ 5.06 to 40.5 µM) | 2 to 16 (≈ 5.06 to 40.5 µM) | 5.5 |  |  |  |  | 20
COc1ccc(-c2ccnn2-c2ccc(N3C[C@H](CNC(C)=O)OC3=O)cc2F)cc1OC [Compound 14j, (S)-N-((3-(3-fluoro-4-(5-(3,4-dimethoxyphenyl)-1H-pyrazol-1-yl)phenyl)-2-oxooxazolidin-5-yl)methyl) acetamide] | 153.7 to 156.1 |  |  |  |  | 7 | 0.25 to 2 (≈ 0.55 to 4.4 µM) | 0.25 to 1 (≈ 0.55 to 2.2 µM) | 0.25 to 2 (≈ 0.55 to 4.4 µM) | 0.5 to 2 (≈ 1.1 to 4.4 µM) | 12
CC(=O)NC[C@H]1CN(c2ccc(-n3cc(-c4ccc(C)cc4)cn3)c(F)c2)C(=O)O1 [Compound 13b, (S)-N-((3-(3-fluoro-4-(4-(p-tolyl)-1H-pyrazol-1-yl)phenyl)-2-oxooxazolidin-5-yl)methyl)acetamide] | 221.5 to 222.8 | 0.25 to 8 (≈ 0.612 to 19.6 µM) | 0.5 to 8 (≈ 1.22 to 19.6 µM) | 1 to 8 (≈ 2.45 to 19.6 µM) | 0.5 to 8 (≈ 1.22 to 19.6 µM) | 12 |  |  |  |  | 5.58

Second part, led by results:

melting point [°C] | MIC (S. agalactiae; [1]) [µg/mL] | MIC (S. pneumoniae; [2]) [µg/mL] | MIC (S. aureus; [3]) [µg/mL] | MIC (E. faecalis; [4]) [µg/mL] | Structure (SMILES) | cytotoxicity at 50 µM (HEK-293) [%] | MIC (S. agalactiae) [µg/mL] | MIC (S. pneumoniae) [µg/mL] | MIC (S. aureus) [µg/mL] | MIC (E. faecalis) [µg/mL] | cytotoxicity at 50 µM (L-02) [%]
89.5 to 91.9 | 2 to 32 (≈ 4.9 to 78.3 µM) | 2 to 16 (≈ 4.9 to 39.2 µM) | 4 to 32 (≈ 9.79 to 78.3 µM) | 2 to 32 (≈ 4.9 to 78.3 µM) | CC(=O)NC[C@H]1CN(c2ccc(-n3nccc3-c3ccc(C)cc3)c(F)c2)C(=O)O1 [Compound 14c, (S)-N-((3-(3-fluoro-4-(5-(p-tolyl)-1H-pyrazol-1-yl)phenyl)-2-oxooxazolidin-5-yl)methyl)acetamide] | 40 |  |  |  |  | 39
 | 2 to 16 (≈ 5.06 to 40.5 µM) | 1 to 16 (≈ 2.53 to 40.5 µM) | 2 to 16 (≈ 5.06 to 40.5 µM) | 2 to 16 (≈ 5.06 to 40.5 µM) | CC(=O)NC[C@H]1CN(c2ccc(-n3nccc3-c3cccnc3)c(F)c2)C(=O)O1 [Compound 14a, (S)-N-((3-(3-fluoro-4-(5-(pyridin-3-yl)-1H-pyrazol-1-yl)phenyl)-2-oxooxazolidin-5-yl)methyl)acetamide] | 14 |  |  |  |  | 7.51
111.4 to 112.9 | 0.5 to 4 (≈ 1.21 to 9.7 µM) | 0.5 to 8 (≈ 1.21 to 19.4 µM) | 1 to 8 (≈ 2.42 to 19.4 µM) | 1 to 8 (≈ 2.42 to 19.4 µM) | CC(=O)NC[C@H]1CN(c2ccc(-n3nccc3-c3ccc(F)cc3)c(F)c2)C(=O)O1 [Compound 14i, (S)-N-((3-(3-fluoro-4-(5-(4-fluorophenyl)-1H-pyrazol-1-yl)phenyl)-2-oxooxazolidin-5-yl)methyl)acetamide] | 5.5 |  |  |  |  | 9
